Results on 7 compounds are retold here after PubChem BioAssay (NCI).

Structures are written as SMILES. Several values for one entry are separate records, joined by “and”; a condition that tells them apart may be missing. Identical values can stand only once.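 1) Cells in 96-well plates. 2) Compound, 48 h, 5 concentrations. 3) Linear interpolation between surrounding doses. 4) Unreached endpoint = highest concentration. Here, GI50 denotes the concentration required for 50% inhibition of growth. TGI denotes the concentration required for complete inhibition of growth.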

What all share (test): NCI-60 cell line screen, 48 h
The test system of test [1] is CAKI-1 renal.
The test system of test [2] is DU-145 prostate.
In test [3] the test system is EKVX NSCLC.
The subject of test [4] is HL-60(TB) leukemia.
For test [5], the system named is MALME-3M melanoma.
Test [6] concerns MOLT-4 leukemia.
Test [7] deals with NCI/ADR-RES ovarian.
The subject of test [8] is OVCAR-8 ovarian.
The subject of test [9] is SF-539 CNS.
The subject of test [10] is T-47D breast.

For the compound `COc1nc(N)nc2nc[nH]c12`, the GI50 in test [1] was 188 µM and 295 µM; in test [2], 720 µM; in [3] it was 651 µM and > 759 µM; in [4], 715 µM and 210 µM; in test [5], > 800 µM and 665 µM; in test [6], over 800 µM. The GI50 was 580 µM in test [7]; > 800 µM and 579 µM in test [8]; over 800 µM in [9]; over 779 µM in test [10]. Also, the TGI in [1] was 410 µM and 522 µM and 730 µM; in test [2], 500 µM and > 1000 µM; in test [3] it was > 387 µM and 800 µM and > 1000 µM; in test [4], 500 µM and 800 µM and > 1000 µM; in test [5] it was 356 µM and > 800 µM and > 1000 µM; in [6], 500 µM and > 800 µM and > 1000 µM. Further, the TGI is over 739 µM in test [7]; over 800 µM in test [8]; 500 µM and > 800 µM and > 1000 µM in test [9]; 500 µM and > 1000 µM in [10].
Consider `Cn1cc(-c2ccc3c(c2)ncn3-c2cc(NS(=O)(=O)C3CC3)cc(-c3ccc(F)cc3F)c2)cn1`, for which the GI50 in [1] is 3.77 µM; in test [2], 21.2 µM; in [3] it was 21.3 µM; in test [4] it was 11.9 µM; in [5], 22.7 µM; in test [6], 2.8 µM. The GI50 in test [7] is 13.6 µM; in [8], 15.4 µM; in [9], 1.37 µM; in [10] it was 7.39 µM. The TGI in test [1] is over 100 µM; in test [2], over 100 µM; in [3] it was over 100 µM; in test [4] it was 45.4 µM; in test [5], 63.8 µM; in [6] it was over 100 µM. Further, the TGI is over 100 µM in test [7], over 100 µM in [8], 12.7 µM in test [9] and 62.8 µM in test [10].
As for `N=C(N)SCc1ccc(Cl)c2ccccc12` (tested in a mixture with another compound), the TGI is 19.2 µM and 24.4 µM in test [1]; 27.7 µM and 25.9 µM in [2]; 24.5 µM and 27.5 µM in test [3]; 12.6 µM and 17.8 µM in [4]; 22.1 µM and 23.4 µM in test [5]; 17.3 µM and 4.25 µM in test [6]. In addition, the TGI in test [7] is 48.1 µM and 55.2 µM; in test [8], 50.1 µM and > 77.8 µM; in test [9], 23.1 µM and 20.4 µM; in test [10], 18.3 µM and 21.7 µM.
`N#C[Se]CCN1C(=O)c2ccccc2C1=O`: the GI50 was 2.94 µM in [1]; 2.58 µM in test [2]; 2.88 µM in test [3]; 2.23 µM in test [4]; 1.82 µM in [5]; 2.01 µM in test [6]. Besides, the GI50 in test [7] is 1.87 µM; in test [8], 2.66 µM; in test [9] it was 1.92 µM; in test [10], 3.45 µM. Also, the TGI in test [1] turned out to be 8.62 µM; in test [2], 7.77 µM; in test [3], 10.3 µM; in [4], 5.71 µM; in test [5], 13.4 µM; in test [6] it was 23.9 µM. Further, the TGI was determined as 7.42 µM in [7], 8.26 µM in test [8], 6.85 µM in test [9] and 20.2 µM in test [10].
Regarding `COc1cc2c3c(n(CCCN)c(=O)c2cc1OC)-c1ccc(N)cc1C3=O`, the GI50 is 30.9 µM in [1]; 1.64 µM in test [2]; 9.15 µM in [3]; 0.461 µM in test [4]; 5.85 µM in [5]; 0.527 µM in test [6]. For the same compound, the GI50 is over 100 µM in test [7], 2.86 µM in test [8], 0.302 µM in test [9] and 0.842 µM in test [10]. The TGI is over 82.3 µM in [1]; 9.03 µM in test [2]; over 30.9 µM in test [3]; 4.91 µM in test [4]; 26.4 µM in test [5]; 4.7 µM in test [6]. The TGI in test [7] was over 100 µM; in test [8], 59.1 µM; in test [9], 1.61 µM; in test [10], 7.37 µM.
In the case of `CN(c1ccccc1)c1c2ccccc2nc2[nH]c3ccccc3c12`, the GI50 in test [1] was 1.92 µM; in test [2], 1.44 µM; in test [3], 5.04 µM; in [4] it was 0.985 µM; in test [5], 2.24 µM; in test [6] it was 0.841 µM. In addition, the GI50 is 7.79 µM in test [7], 2.46 µM in test [8], 1.91 µM in test [9] and 3.84 µM in [10]. The TGI in test [1] is 5.92 µM; in test [2], 8.76 µM; in [3] it was 21 µM; in test [4], 6.25 µM; in [5] it was 5.72 µM; in [6], over 29.6 µM. The TGI was over 47.8 µM in [7], over 29.3 µM in test [8], 4.59 µM in [9] and 32.6 µM in test [10].
In the case of `Oc1c(Br)cc(Cl)cc1C(c1cc(Cl)cc(Br)c1O)C(Cl)(Cl)Cl`, the GI50 in test [1] is 2.09 µM; in test [2], 4.74 µM; in [3], 2.72 µM; in test [4] it was 3.02 µM; in test [5], 2.73 µM; in [6] it was 3.32 µM. For the same compound, the GI50 in [7] is 2.48 µM; in test [8] it was 2.86 µM; in test [9], 3.15 µM; in test [10] it was 2.84 µM. The TGI in test [1] is 8.73 µM; in test [2], 16.2 µM; in [3] it was 11.3 µM; in test [4], 7.6 µM; in test [5], 7.78 µM; in test [6], 9.95 µM. For the same compound, the TGI was found to be 8.66 µM in test [7], 13 µM in test [8], 10.7 µM in test [9] and 11.1 µM in test [10].
